Laboratory results reported in US20030083469A1, “Allosteric control of nuclear hormone receptors” (The Salk Institute for Biological Studies, priority 1995, published 2003).

What was measured:
GST-RXR/RAR heterodimers = target: T1, GST-RXR/RAR heterodimers (Homo sapiens, UniProt P10276+P19793); assay: Ligand binding assay with GST-RXR/RAR heterodimers
T1 sequence (P19793 1-462): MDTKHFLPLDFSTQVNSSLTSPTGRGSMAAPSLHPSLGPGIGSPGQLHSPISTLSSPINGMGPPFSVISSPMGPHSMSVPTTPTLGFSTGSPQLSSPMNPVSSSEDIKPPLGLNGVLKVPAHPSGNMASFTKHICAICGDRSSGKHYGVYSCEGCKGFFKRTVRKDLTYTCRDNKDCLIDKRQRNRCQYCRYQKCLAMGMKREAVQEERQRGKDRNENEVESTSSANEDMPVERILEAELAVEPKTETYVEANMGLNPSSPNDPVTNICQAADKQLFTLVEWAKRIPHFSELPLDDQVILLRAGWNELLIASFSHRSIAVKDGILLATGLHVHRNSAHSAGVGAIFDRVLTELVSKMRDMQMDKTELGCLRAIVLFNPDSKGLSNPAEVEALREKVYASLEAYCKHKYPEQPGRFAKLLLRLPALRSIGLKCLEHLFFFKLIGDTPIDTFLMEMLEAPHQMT
T1 sequence (P10276 1-462): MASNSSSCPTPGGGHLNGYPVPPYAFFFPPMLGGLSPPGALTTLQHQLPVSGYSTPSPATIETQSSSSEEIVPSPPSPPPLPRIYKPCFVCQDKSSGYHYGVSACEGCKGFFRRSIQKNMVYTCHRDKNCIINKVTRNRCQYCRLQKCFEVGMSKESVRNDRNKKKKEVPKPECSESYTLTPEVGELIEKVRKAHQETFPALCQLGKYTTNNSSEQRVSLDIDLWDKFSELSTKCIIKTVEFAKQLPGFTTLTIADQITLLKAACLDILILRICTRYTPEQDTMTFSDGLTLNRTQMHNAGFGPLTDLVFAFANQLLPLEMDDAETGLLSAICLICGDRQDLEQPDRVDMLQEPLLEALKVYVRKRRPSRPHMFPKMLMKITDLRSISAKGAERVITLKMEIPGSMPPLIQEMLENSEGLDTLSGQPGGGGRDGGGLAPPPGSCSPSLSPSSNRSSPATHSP

GST-hRXRα = target: T2, GST-hRXRα (Homo sapiens, UniProt P19793); assay: Ligand binding assay with GST-RXR (glutathione-sepharose); settings: 50 nM [3H] LG69; 2 μM unlabeled ligand
T2 construct: made in house
T2 sequence (P19793 1-462): T1 sequence (P19793 1-462)

GAL-RXR+T3R LBD = target: T3, GAL-RXR+T3R LBD (Homo sapiens, UniProt P10828+P19793); assay: Transient transfection analysis of GAL-RXR LBD in the presence of T3R LBD; format: cell-based
T3 construct: human RXRα LBD (Glu 203 - Thr 462); human T3Rβ LBD (Leu 173 - Asp 456); expressed in transfected cells; host or cells: CV-1
T3 sequence (P19793 203-462 limits assumed): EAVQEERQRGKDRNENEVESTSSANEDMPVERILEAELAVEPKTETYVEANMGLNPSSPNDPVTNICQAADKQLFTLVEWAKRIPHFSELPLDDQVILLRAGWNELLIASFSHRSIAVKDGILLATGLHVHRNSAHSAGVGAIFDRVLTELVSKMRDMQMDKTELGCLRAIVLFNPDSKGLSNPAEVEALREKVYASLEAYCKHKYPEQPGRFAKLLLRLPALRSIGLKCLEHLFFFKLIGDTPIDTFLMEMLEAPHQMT
T3 sequence (P10828 178-461 limits assumed): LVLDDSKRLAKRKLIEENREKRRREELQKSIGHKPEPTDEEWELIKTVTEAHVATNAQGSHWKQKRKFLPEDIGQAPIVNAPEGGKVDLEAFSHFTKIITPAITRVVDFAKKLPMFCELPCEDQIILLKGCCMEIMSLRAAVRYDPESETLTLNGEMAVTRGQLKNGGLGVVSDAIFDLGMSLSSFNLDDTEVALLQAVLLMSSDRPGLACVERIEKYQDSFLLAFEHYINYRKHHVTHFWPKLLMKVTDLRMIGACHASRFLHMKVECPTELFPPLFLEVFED
Protocol: (§1) One day prior to transfection, cells were plated to 50-80% confluence using phenol-red free DMEM-FBS. Cells were transfected by lipofection using N-{2-(2,3)-dioleoyloxy)propyl-N,N,N-trimethyl ammonium methyl sulfate} according to the manufacturer's instructions (DOTAP, Boehringer Mannheim).
Normalized luciferase activity was determined and plotted as fold-activation relative to untreated cells.

Nurrl+RXR LBD = target: T4, Nurrl+RXR LBD (Homo sapiens, UniProt P19793); assay: Transient transfection of Nurrl with RXR LBD on NBRE x3 reporter; format: cell-based, mouse Nurrl, human RXRα; settings: NBRE×3; 100 nM LG69
T4 construct: or the human RXRα LBD (Glu 203 -Thr 462); expressed in transfected cells; host or cells: CV-1
Protocol: CV-1 cells were grown in Dulbecco's Modified Eagle's medium supplemented with 10% resin-charcoal stripped (Samuels et al., Endocrinology 105:80-85 (1979)) fetal bovine serum, 50 U/ml penicillin G and 50 μg/ml streptomycin sulfate (DMEM-FBS) at 37° C. in 5% CO2. One day prior to transfection, cells were plated to 50-80% confluence using phenol-red free DMEM-FBS. Cells were transfected by lipofection using N-{2-(2,3)-dioleoyloxy)propyl-N,N,N-trimethyl ammonium methyl sulfate} according to the manufacturer's instructions (DOTAP, Boehringer Mannheim). […] Cells were harvested and assayed for luciferase and β-galactosidase activity. All points were performed in triplicate in each experiment and varied by less than 10%. Each experiment was repeated three or more times with similar results.
This prompted an investigation of the question of whether the RXR DBD is required for activation through the Nurrl pathway. Thus, CV-1 cells were transfected with TK-LUC reporters (300 ng/10^5 cells), CMX-βgal (500 ng/10^5 cells) and the indicated CMX-receptor construct (20 ng/10^5 cells; see FIG. 7D) with or without CMX-RXR-LBD (100 ng/10^5 cells) . […] Normalized luciferase activity was determined and plotted as percent of maximal fold-activation where 100% is defined as the fold activation by T3R, RAR, VDR, the RXR LBD, or Nurrl+RXR LBD. […]

RAR-RXR heterodimers = target: T5, RAR-RXR heterodimers (Homo sapiens, UniProt P10276+P19793); assay: Transient transfection analysis of RAR-RXR heterodimers (TK-LUC reporter, CV-1 cells); format: cell-based
T5 construct: transient transfection analysis of full-length Nurrl and/or RXR; expressed in transfected cells; host or cells: CV-1
T5 sequence (P10276 1-462): T1 sequence (P10276 1-462)
T5 sequence (P19793 1-462): T1 sequence (P19793 1-462)
Protocol: as §1
In the right panel of FIG. 2, cells were transfected with HRE×1 TK-LUC (300 ng/10^5 cells), CMX-hRARα (50 ng/10^5 cells) CMX-hRXRα (50 ng/10^5 cells) and CMX-βgal (500 ng/10^5 cells) . […] Normalized luciferase activity was determined and plotted as fold-activation relative to untreated cells.

T4 sequence (Q06219 whole entry partner, one chain of several, the tested form may be a part): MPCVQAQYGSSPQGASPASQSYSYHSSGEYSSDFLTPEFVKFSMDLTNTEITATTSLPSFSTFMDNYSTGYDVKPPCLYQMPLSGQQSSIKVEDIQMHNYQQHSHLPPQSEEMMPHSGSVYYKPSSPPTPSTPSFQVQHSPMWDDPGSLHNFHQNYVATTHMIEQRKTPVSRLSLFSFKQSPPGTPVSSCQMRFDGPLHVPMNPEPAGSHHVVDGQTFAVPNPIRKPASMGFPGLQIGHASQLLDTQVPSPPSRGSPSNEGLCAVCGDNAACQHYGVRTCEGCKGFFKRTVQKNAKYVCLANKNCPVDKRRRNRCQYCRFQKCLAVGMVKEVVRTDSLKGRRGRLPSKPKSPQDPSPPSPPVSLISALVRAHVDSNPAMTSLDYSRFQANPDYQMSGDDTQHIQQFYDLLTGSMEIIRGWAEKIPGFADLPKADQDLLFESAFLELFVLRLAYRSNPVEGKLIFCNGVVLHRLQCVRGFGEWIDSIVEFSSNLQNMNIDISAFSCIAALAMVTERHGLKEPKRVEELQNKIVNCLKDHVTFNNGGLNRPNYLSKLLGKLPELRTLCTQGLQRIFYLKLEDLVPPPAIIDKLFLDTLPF

Compound: CC=C(c1ccc(C(=O)O)cc1)c1cc2c(cc1C)C(C)(C)CCC2(C)C [LG69, 4-{1-(3,5,5,8,8-pentamethyl-5,6,7,8-tetrahydro-2-napthalenyl)-1-propenyl}benzoic acid]
- competition of [3H] 9-cis RA binding by addition of both Am580 and LG69 (GST-RXR/RAR heterodimers; 50 nM [3H] 9-cis RA, 2 μM Am580 + 2 μM LG69): Nearly complete competition
- decrease in the amount of [3H] LG69 bound to GST-RXR on addition of RAR (GST-RXR/RAR heterodimers; 50 nM [3H] LG69, 500 ng hRARα): < 85%
- competition of [3H] LG69 binding to GST-RXR by unlabeled ligand (GST-hRXRα): specifically completed
- activity of T3+LG69 compared with T3 alone (GAL-RXR+T3R LBD; 100 nM T3+100 nM LG69): slightly less activity
- fold response to LG69 (GAL-RXR+T3R LBD; GAL-RXR+T3R LBD (unliganded), 100 nM LG69): 57 fold
- LG69 responsiveness conferred upon Nurrl by the RXR LBD (Nurrl+RXR LBD): strong
- transcriptional activity with Am580+LG69 over that seen with AM580 alone (RAR-RXR heterodimers; 50 nM Am580+100 nM LG69, full-length receptors): increased transcriptional activity
- responsiveness of transfected cells to ligand (luciferase fold-activation) (RAR-RXR heterodimers; CV-1 cells transfected with RARα and RXRα, 50 nM Am580 or 100 nM LG69): unresponsive
